From patent publication US20250230151A1, “COMPOUNDS FOR CANCERS DRIVEN BY BRAF MUTATION” (THE BOARD OF TRUSTEES OF THE UNIVERSITY OF ILLINOIS, priority 2021, published 2025) come the findings set out here.

The test system of one series is SK-MEL-28 cells. As to the kind of experiment: 72-hour cell viability assay (Alamar Blue), SK-MEL-28. The settings on record: Homo sapiens, SK-MEL-28, V600E BRAF, melanoma. Format: cell-based. As to the method:
(§1) Cell Culture and reagents. All cell lines were grown in a 37° C., 5% CO2, humidified environment, in media containing 1% penicillin/streptomycin. Cell culture conditions are as follows: MDCK cells transfected with MDR1 (or ABCB1) were obtained from the Netherlands Cancer Institute (Amsterdam, The Netherlands) and maintained in DMEM with 10% fetal bovine serum (FBS, Gemini). Traditional cell lines A375, CHL-1, B16F10, and U118MG were grown in DMEM with 10% FBS, SK-MEL-28, U87 and T98G in EMEM with 10% FBS, AM-38 in EMEM with 20% HI-FBS (Gibco), HT29 in McCoy's 5A with 10% FBS, HCT116 in RPMI with 10% FBS. Compounds were dissolved in DMSO (1% final concentration, Sigma-Aldrich) for cell culture studies.
(§2) Cell viability assays. Cells were harvested, seeded in a 96-well plate and allowed to adhere overnight. Compound was added to each well in DMSO (1% final concentration). Cells were incubated for 72 hours before viability was assessed by the Alamar Blue Assay. Raptinal ([…]) was used as a dead control.

For the next series, the system named is A375 cells. Description: 72-hour cell viability assay (Alamar Blue), A375. Format: cell-based, human. Particulars: for IC50: 72-hour incubation, Alamar Blue, V600E BRAF; for Emax: A-375, A375, 72-hour incubation. How it is done: as §1, §2
Another series relates to HCT116 cells. Description: 72-hour cell viability assay (Alamar Blue), HCT116. The format is cell-based. Particulars: Homo sapiens, HCT-116, WT BRAF, colon, read-out: HCT116 (WT) IC50. How it is done: as §1, §2
In series [1] the test system is MAPK signaling (phospho-MEK1/2, phospho-ERK1/2) in A375 cells. As to the kind of experiment: Immunoblotting of MEK1/2 and ERK1/2 phosphorylation, A375. The format is cell-based, human. Particulars: A375, highest concentrations (10 μM), 24 h. How it is done: Immunoblotting. Cells were lysed using RIPA buffer containing phosphatase (BioVision) and protease inhibitor cocktail (Calbiochem). Protein concentration was determined using the BCA assay (Pierce). Cell lysates containing […] of protein were loaded into each lane of 4% to 20% gradient gels (Bio-Rad) for SDS-PAGE. Proteins were transferred onto PDVF membrane for Western blot analysis. Blots were blocked with BSA for one hour followed by incubation with primary antibody overnight (dilution according to manufacturer's protocols), and then secondary antibody was incubated for one hour. Blots were then imaged with a ChemiDoc Touch (Bio-Rad) after incubation with SuperSignal West Pico Solution (ThermoFischer) following manufacturer's protocols. All antibodies were purchased from Cell Signaling Technology: p-ERK (9101S), ERK (4695S), p-MEK (9121S), MEK (8727S), vinculin (13901S) Rabbit IgG-HRP (7074), […] (5125).

The nature of series [2]: Blood-brain barrier penetrance, brain and serum levels after single IV injection. Format: in vivo. The settings on record: CD-1, mouse, 60 min after single 25 mg/kg IV injection, read-out: brain-to-serum ratio. How it is done: Blood-brain barrier penetrance P-gp in vivo assays. All experimental procedures were reviewed and approved by the University of Illinois Institutional Animal Care and Use Committee (Protocol number: 19191). CD-1 mice were purchased from Charles River and acclimated for 4-7 days before use. Mice were administered elacridar or its vehicle at 2.5 mg/kg via lateral tail vein injection. Thirty-minutes post injection, mice were then treated with compounds at 25 mg/kg intravenously now in the other tail vein. At each time point, mice were sacrificed and blood was collected by lacerating the right auricle with iris scissors. An 18-gauge angiocatheter was inserted through the left ventricle, and all residual circulatory volume was removed by perfusing 0.9% saline solution via an analog peristaltic pump. Brains were harvested from the cranial vault and flash frozen. Blood samples were centrifuged at 13,000 ref for 10 minutes and the supernatant serum was stored at −80° C. until analysis. Brain samples were homogenized in ice-cold methanol and centrifuged first at 2000 ref for three minutes and then 13,000 ref for ten minutes and supernatant and tissue debris were separated and stored at −80° C. The resultant supernatant and serum were analyzed by LC-MS/MS to determine compound concentrations. […] All compounds were administered at 5 mL/kg.

A further series concerns the target T1, P-gp (Homo sapiens, UniProt P08183).
T1 construct: host or cells: MDCK (MDR1-MDCK)
As to the kind of experiment: MDR1-MDCK P-gp transwell bidirectional transport assay. The format is in vitro ADME. Particulars: 10 μM, 90 min; for Papp A→B at 90 min, 10 µM / Papp B→A at 90 min, 10 µM / efflux ratio at 90 min, 10 µM: dog, MDCK-MDR1, MDR1-MDCK; for efflux ratio at 90 min, 10 µM: read-out: ER (efflux ratio) (converted); for ER (efflux ratio): MDR1-MDCK. How it is done: A novel compound collection composed of complex and diverse compounds derived from natural products, termed “Complexity-to-Diversity Collection” was employed. […] The CtD compounds were evaluated by the efflux pump and their permeability using the P-gp transwell assay using adapted and optimized known protocols. Compound transport across epithelial cells overexpressing P-gp from basolateral-to-apical and apical-to-basolateral directions were quantified to calculate permeability and efflux ratio.
P-gp transwell bidirectional transport assays. Unless noted otherwise, the transport assay was performed in triplicate in batches of 16 or 24 test compounds, with each batch containing quinidine as a substrate control and propranolol as a non-substrate control. MDR1-MDCK cells were plated at a density of 300,000 cells/cm^2 onto 96-well Falcon™ Multiwell Insert System with 1 µm pore polycarbonate filters with angled-bottom receiver plates (Coming) and were fed with the cell growth medium on day 2.
The donor solution was prepared by adding 1 mM DMSO stocks of compounds to make the final concentration […], and the receiver solution was prepared with equivalent volume of DMSO to make 1% DMSO in final assay chamber volumes.
After 80-96 hours since seeding, the growth media on both sides was aspirated. To the transwell plate (apical side), 50 μL of receiver and donor solutions prepared on a 96-well plate were added, and it was placed on top of a separate angled-bottom 96-well plate (basolateral side) containing 260 μL of receiver and donor solutions.
Following 90 minutes of incubation at 37° C. with shaking at 90 rpm, 20 μL aliquot of samples were taken from both the donor and receiver chambers, and the apical and basolateral sides. Aliquots of 4 test compounds were pooled for each category: apical-donor, apical-receiver, basolateral-donor, basolateral-receiver. To measure CO and mass balance, initial donor samples from both apical and basolateral side were set aside from the assay plate. Acetonitrile twice the volume of pooled samples was added and mixed thoroughly, and precipitated proteins were removed by centrifugation at 20,000 r.c.f for 10 minutes.
To ascertain the MDCK monolayer integrity, the solution on apical side contained 100 µM Lucifer Yellow (Millipore-Sigma). After 90 minutes of compound transport, Lucifer Yellow concentration in the basal well was measured using SpectraMax M3 (Molecular Devices) set to an excitation wavelength of 430 nm and an emission wavelength of 540 nm.
Samples were analyzed with the 5500 QTRAP LC/MS/MS system (AB Sciex) with a 1200 series HPLC system (Agilent Technologies) including a degasser, an autosampler, and a binary pump. The liquid chromatography separation was performed on an Agilent SB-Aq column (4.6×50 mm, 5 μm) (Agilent Technologies) with mobile phase A (0.1% formic acid in water) and mobile phase B (0.1% formic acid in acetonitrile). The flow rate was 0.3 ml min^−1. The linear gradient was optimized for each compound. The autosampler was set at 5° C. The injection volume was 15 μL. Mass spectra were acquired with both positive electrospray ionization at the ion spray voltage of 5,500 V and negative electrospray ionization at the ion spray voltage of −4,500 V. The source temperature was 450° C. The curtain gas, ion source gas 1, and ion source gas 2 were 33, 50 and 65, respectively. Multiple reaction monitoring was used to quantify metabolites.
Efflux data calculations.

Where only a bound is given, the exact number is not on record here.

T1 sequence (P08183 whole entry): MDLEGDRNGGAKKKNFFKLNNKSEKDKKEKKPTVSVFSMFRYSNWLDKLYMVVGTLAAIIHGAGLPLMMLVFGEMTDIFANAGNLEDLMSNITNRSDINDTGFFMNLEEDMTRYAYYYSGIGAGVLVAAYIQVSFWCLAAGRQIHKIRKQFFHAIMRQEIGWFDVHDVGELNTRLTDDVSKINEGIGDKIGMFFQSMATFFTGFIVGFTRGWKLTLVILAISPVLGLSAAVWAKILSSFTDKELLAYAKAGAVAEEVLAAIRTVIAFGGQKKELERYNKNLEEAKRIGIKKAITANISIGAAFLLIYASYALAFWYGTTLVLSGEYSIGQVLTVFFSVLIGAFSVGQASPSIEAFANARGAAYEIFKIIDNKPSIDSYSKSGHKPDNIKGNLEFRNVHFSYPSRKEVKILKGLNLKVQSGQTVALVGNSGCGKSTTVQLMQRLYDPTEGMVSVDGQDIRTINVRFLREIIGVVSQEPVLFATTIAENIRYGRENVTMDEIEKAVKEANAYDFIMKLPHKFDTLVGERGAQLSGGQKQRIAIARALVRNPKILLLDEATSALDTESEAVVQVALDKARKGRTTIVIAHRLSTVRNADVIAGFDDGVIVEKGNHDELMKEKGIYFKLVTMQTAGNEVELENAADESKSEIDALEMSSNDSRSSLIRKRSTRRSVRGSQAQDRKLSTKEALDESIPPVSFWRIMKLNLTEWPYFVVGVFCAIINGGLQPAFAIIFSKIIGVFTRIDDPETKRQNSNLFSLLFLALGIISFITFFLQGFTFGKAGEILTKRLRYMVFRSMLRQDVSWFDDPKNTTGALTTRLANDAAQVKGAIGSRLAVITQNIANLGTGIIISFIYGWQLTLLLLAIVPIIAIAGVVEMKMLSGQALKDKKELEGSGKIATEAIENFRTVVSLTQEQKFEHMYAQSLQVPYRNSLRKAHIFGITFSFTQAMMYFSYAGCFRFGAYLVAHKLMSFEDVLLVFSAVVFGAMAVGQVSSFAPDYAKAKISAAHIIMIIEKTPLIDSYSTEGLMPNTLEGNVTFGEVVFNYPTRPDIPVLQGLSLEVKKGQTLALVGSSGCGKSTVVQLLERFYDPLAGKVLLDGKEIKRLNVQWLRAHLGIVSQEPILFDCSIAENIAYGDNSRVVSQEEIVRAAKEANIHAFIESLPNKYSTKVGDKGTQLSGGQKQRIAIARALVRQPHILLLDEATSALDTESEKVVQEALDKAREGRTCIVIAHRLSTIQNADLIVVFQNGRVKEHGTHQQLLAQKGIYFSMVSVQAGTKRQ

With `CCCS(=O)(=O)Nc1cc(Cl)cc(-c2nc(C(C)(C)C)sc2-c2ccnc(NCC[C@@H](C)CC(=O)O)n2)c1F` [8-43, (R)-5-((4-(2-(tert-butyl)-4-(5-chloro-2-fluoro-3-(propylsulfonamido)phenyl)thiazol-5-yl)pyrimidin-2-yl)amino)-3-methylpentanoic acid], the IC50 with SK-MEL-28 cells amounted to 51.1 ± 1.35 nM; with A375 cells (Homo sapiens, A-375, 72 h), 38.2 ± 3.29 nM; in the series with HCT116 cells, 5130 ± 382 nM.
Regarding `CCCS(=O)(=O)Nc1cc(Cl)cc(-c2nc(C(C)(C)C)sc2-c2ccnc(NCC(C)C(F)C(=O)O)n2)c1F` (stereo not drawn) [8-41, 4-((4-(2-(tert-butyl)-4-(5-chloro-2-fluoro-3-(propylsulfonamido)phenyl)thiazol-5-yl)pyrimidin-2-yl)amino)-2-fluoro-3-methylbutanoic acid], the IC50 in the series on SK-MEL-28 cells was 246 ± 8.73 nM; in the series with A375 cells (Homo sapiens, A-375, 72 h), 301 ± 39.9 nM; in the series on HCT116 cells it was above 1000 nM.
In the case of `CCCS(=O)(=O)Nc1cc(Cl)cc(-c2nc(C(C)(C)C)sc2-c2ccnc(NCC(C)CC(=O)O)n2)c1F` (stereo not drawn) [6-265, 4-((4-(2-(tert-butyl)-4-(5-chloro-2-fluoro-3-(propylsulfonamido)phenyl)thiazol-5-yl)pyrimidin-2-yl)amino)-3-methylbutanoic acid], the IC50 turned out to be 124 ± 4.86 nM in the series on SK-MEL-28 cells; 113 ± 10.7 nM with A375 cells (Homo sapiens, A-375, 72 h); 8840 nM in the series with HCT116 cells.
As to `CCCS(=O)(=O)Nc1ccc(F)c(C(=O)c2c[nH]c3ncc(Cl)cc23)c1F` [PLX4720, reference compound], in series [1], the “inhibition of ERK1/2 phosphorylation after 24 h” value is “diminished inhibition”. In series [2], the Kp at 60 min fell in the range of 0.0014 to 0.0069.
For `CC(C)(C)c1nc(-c2c(F)ccc(NS(=O)(=O)c3cc(C(F)(F)F)ccc3C(F)(F)F)c2F)c(-c2ccnc(NCCCCC(=O)O)n2)s1` [6-150, 5-((4-(4-(3-((2,5-bis(trifluoromethyl)phenyl)sulfonamido)-2,6-difluorophenyl)-2-(tert-butyl)thiazol-5-yl)pyrimidin-2-yl)amino)pentanoic acid], in the series with A375 cells (Homo sapiens, A-375, 72 h), the IC50 was above 50000 nM. For the same molecule, at P-gp, the Papp A→B at 90 min, 10 µM is 0.518 ×10⁻⁶ cm/s; the Papp B→A at 90 min, 10 µM was 0.398 ± 0.149 ×10⁻⁶ cm/s; the efflux ratio at 90 min, 10 µM was 0.6.
Take `CC(C)(C)c1nc(-c2cccc(NS(=O)(=O)c3c(F)cccc3F)c2F)c(-c2ccnc(CCC(=O)O)n2)s1` [6-97, 3-(4-(2-(tert-butyl)-4-(3-((2,6-difluorophenyl)sulfonamido)-2-fluorophenyl)thiazol-5-yl)pyrimidin-2-yl)propanoic acid]: the IC50 in the series with A375 cells (Homo sapiens, A-375, 72 h) is above 1000 nM. Besides, at P-gp, the Papp A→B at 90 min, 10 µM was found to be 0.868 ± 0.021 ×10⁻⁶ cm/s; the Papp B→A at 90 min, 10 µM turned out to be 0.741 ± 0.156 ×10⁻⁶ cm/s; the efflux ratio at 90 min, 10 µM is 0.86 ± 0.19.
On to `CC(C)(C)c1nc(-c2cccc(NS(=O)(=O)c3c(F)cccc3F)c2F)c(-c2ccnc(NCCCCc3nnn[nH]3)n2)s1` [6-121, N-(3-(5-(2-((4-(1H-tetrazol-5-yl)butyl)amino)pyrimidin-4-yl)-2-(tert-butyl)thiazol-4-yl)-2-fluorophenyl)-2,6-difluorobenzenesulfonamide], for which the IC50 with A375 cells (Homo sapiens, A-375, 72 h) stood at 1270 ± 54.4 nM. In the series with A375 cells (Homo sapiens), the Emax came out at 60%. The same molecule came in with a Papp B→A at 90 min, 10 µM on P-gp of 0.325 ± 0.124 ×10⁻⁶ cm/s.
Consider `CC(C)(C)c1nc(-c2cccc(NS(=O)(=O)c3cc(C(F)(F)F)ccc3C(F)(F)F)c2F)c(-c2ccnc(NCCCCC(=O)O)n2)s1` [6-173, 5-((4-(4-(3-((2,5-bis(trifluoromethyl)phenyl)sulfonamido)-2-fluorophenyl)-2-(tert-butyl)thiazol-5-yl)pyrimidin-2-yl)amino)pentanoic acid], for which the IC50 in the series on A375 cells (Homo sapiens, A-375, 72 h) was above 50000 nM. The molecule also gave a basolateral-to-apical permeability (Papp B→A) at 90 min, 10 µM on P-gp of 0.46 ± 0.086 ×10⁻⁶ cm/s.
`COC(=O)N[C@@H](C)CNc1nccc(-c2cn(C(C)C)nc2-c2cc(Cl)cc(NS(C)(=O)=O)c2F)n1` [Encorafenib, reference compound] displayed a 50% inhibitory concentration (IC50) in the series on A375 cells (Homo sapiens, A-375, 72 h) of 5.17 ± 0.412 nM. Besides, the Kp at 60 min in series [2] fell in the range of 0.0014 to 0.0069. Also, on P-gp, the “ER (efflux ratio)” value was 21.8; the Papp A→B at 90 min, 10 µM turned out to be 1.32 ± 0.602 ×10⁻⁶ cm/s; the Papp B→A at 90 min, 10 µM was determined as 14.7 ± 1.8 ×10⁻⁶ cm/s.
In the series on A375 cells, `CC(C)(C)c1nc(-c2cccc(NS(=O)(=O)c3c(F)cccc3F)c2F)c(-c2ccnc(NCCCC(=O)O)n2)s1` [6-86, 4-((4-(2-(tert-butyl)-4-(3-((2,6-difluorophenyl)sulfonamido)-2-fluorophenyl)thiazol-5-yl)pyrimidin-2-yl)amino)butanoic acid] showed an IC50 of 628 ± 105 nM. The molecule further gave an IC50 in the series with A375 cells (Homo sapiens, A-375, 72 h) of 628 ± 105 nM. The Emax in the series with A375 cells (Homo sapiens) is 65%. In addition, on P-gp, the “ER (efflux ratio)” value was 0.607 ± 0.16; the Papp A→B at 90 min, 10 µM amounted to 0.844 ± 0.214 ×10⁻⁶ cm/s; the Papp B→A at 90 min, 10 µM is 0.445 ± 0.04 ×10⁻⁶ cm/s; the efflux ratio at 90 min, 10 µM was 0.61 ± 0.16.
